According to patent US9617330B2, “Chemorepulsion of cells” (Celtaxsys, Inc., priority 2006, dated 2017):
Where two headings read alike, the source gives them in different places.

What was measured:
B-cell = assay: Trans-well migration assay (Example 1), net migratory response; conditions: net observed response
Experimental: Prior to beginning the assay 0.5% Fetal Calf Serum (FCS) in Iscove's Modified Dulbecco's Medium (IMDM) is prepared and stored on ice (Assay Medium). Migratory cells at a concentration of 2×10^7 cells/ml are suspended in Assay Medium. T-cells isolated from donor blood or buffy coats are allowed to rest overnight in Assay Medium at 37° C. in 5% CO2. Neutrophils, monocytes and B cells are utilized as soon as they are purified from donor blood or other source of human origin. Four serial (10×) dilutions of the ligand are then prepared in Assay Medium (normally 10 μg/ml to 0.01 μg/ml).
Plates are removed from the packaging, leaving the membrane behind and intact. The membrane is set aside. Into each well is pipetted 31 μl of solution. For media controls and fugetaxis (chemorepellent) samples, Assay Medium is used. For chemoattraction samples, the appropriate dilution of agent in assay medium is used.
Using a sterile needle, all small bubbles present in each well are popped and the membrane is carefully placed onto the plate, starting at one side and slowly lowering the other edge onto the plate.
Then 29 μl is pipetted into each circle imprinted on the polycarbonate or polyester membrane. For media controls and chemoattraction samples, Assay Medium is used. For fugetaxis (chemorepellent) samples, the appropriate dilution of ligand in assay medium is used.
To each 29 uL aliquot above is added 2 μl of cells (40,000 cells). It is important to ensure that before beginning the cells are well suspended and that they are mixed. This mixing can be accomplished by agitating the tube between each addition.
The plate is then covered with the supplied lid and incubated 1-3 hours in a humidified incubator at 37° C. in 5% CO2. Following the incubation period, the liquid from the top of the plate is removed with a tissue or similar blotting material (e.g. a Kimwipe). The membrane is carefully removed from the top of the plate and discarded. […] Using a multichannel pipettor, each well of the microplate is rinsed with 25 μl Phosphate Buffered Saline (Mediatech #21-040-CV) and transferred to the same wells in the white microplate. Using a multichannel pipettor, 50 μl CellTiter-Glo Luminescent Cell Viability Assay (Promega #G7572) is added to each well and mixed.
The plate is read using the Perkin Elmer Victor^3V plate reader using the Large Aperture Luminescence setting at 8 mm height above the plate with a dwell time of 1 s to quantify the number of migrated cells.
The results reported reflect the net observed migratory response of the cells to the ligand and are not based on the definition of unimodal fugetaxins.

Neutrophils = assay: High throughput transmigration assay (Example 9), chemorepulsion; type: cell-based, human
Monocyte = assay: Trans-well migration assay (Example 1), net migratory response
[1] = test system: Eo-HL60 (HL-60 clone 15 differentiated to eosinophil-like phenotype); assay: as above; type: cell-based, human; conditions: net observed response
[2] = Neutrophils, mean of three donors at concentration of highest activity, range 0.00125-1.25 μM
[3] = neutrophils, 0.00125 μM, one donor, triplicate, ± SD
[4] = neutrophils, 0.0125 μM, one donor, triplicate, ± SD
[5] = neutrophils, 0.125 μM, one donor, triplicate, ± SD
[6] = neutrophils, 1.25 μM, one donor, triplicate, ± SD
[7] = Monocyte, net observed response

Molecule: COc1cc(CNC(=O)CCCC/C=C/C(C)C)ccc1O [Capsaicin, reference compound]
- Migratory Response (B-cell): chemorepulsion

Molecule: CC[C@H]1OC(=O)[C@H](C)[C@@H](O[C@H]2C[C@@](C)(OC)[C@@H](O)[C@H](C)O2)[C@H](C)[C@@H](O[C@@H]2O[C@H](C)C[C@H](N(C)C)[C@H]2O)[C@](C)(O)C[C@@H](C)C(=O)[C@H](C)[C@@H](O)[C@]1(C)O [Erythromycin, reference compound]
- Repellent Index (Neutrophils; [2]): 4.8
- Repellent Index (Neutrophils; [3]): 1.75 ± 0.40
- Repellent Index (Neutrophils; [4]): 2.29 ± 1.61
- Repellent Index (Neutrophils; [5]): 3.29 ± 1.11
- Repellent Index (Neutrophils; [6]): 6.12 ± 2.53

Molecule: O=c1c(-c2ccc(O)cc2)coc2cc(O)cc(O)c12 [Genistein, reference compound]
- Migratory Response (B-cell): chemorepulsion
- Repellent Index (Neutrophils; [2]): 1.3

Molecule: CC(C)=CCC[C@]1(C)[C@@H](CC=C(C)C)C[C@@]2(CC=C(C)C)C(=O)[C@]1(C(=O)C(C)C)C(=O)C(CC=C(C)C)=C2O [Hyperforin, reference compound]
- Migratory Response (Monocyte): chemorepulsion

Molecule: CC(=O)O[C@H]1C(=O)[C@@]2(C)[C@H]([C@H](OC(=O)c3ccccc3)[C@]3(O)C[C@H](OC(=O)[C@H](O)[C@@H](NC(=O)c4ccccc4)c4ccccc4)C(C)=C1C3(C)C)[C@]1(OC(C)=O)CO[C@@H]1C[C@@H]2O [Paclitaxel, reference compound]
- Migratory Response [1]: chemorepulsion
- Migratory Response (Monocyte; [7]): chemorepulsion

Molecule: O.O.O=c1c(O)c(-c2ccc(O)c(O)c2)oc2cc(O)cc(O)c12 [Quercetin dihydrate, reference compound]
- Migratory Response [1]: chemorepulsion
- Migratory Response (B-cell): chemorepulsion

Molecule: Oc1ccc(C=Cc2cc(O)cc(O)c2)cc1 [Resveratrol, reference compound]
- Migratory Response [1]: chemorepulsion
- Migratory Response (B-cell): chemorepulsion
- Repellent Index (Neutrophils; [2]): 1.4
- Repellent Index (Neutrophils; [3]): 2.65 ± 0.29
- Repellent Index (Neutrophils; [4]): 2.80 ± 0.32
- Repellent Index (Neutrophils; [5]): 2.05 ± 0.28
- Repellent Index (Neutrophils; [6]): 1.32 ± 0.50

Molecule: (−)-Epigallocatechin Gallate [EGCG ((−)-Epigallocatechin Gallate), reference compound]
- Migratory Response (B-cell): chemorepulsion

Molecule: Antithrombin III
- Repellent Index (Neutrophils; Neutrophils, mean of three donors at concentration of highest activity, range 0.000573-0.573 μM): 2.2
- Repellent Index (Neutrophils; neutrophils, 0.000573 μM, one donor, triplicate, ± SD): 1.08 ± 0.36
- Repellent Index (Neutrophils; neutrophils, 0.00573 μM, one donor, triplicate, ± SD): 1.63 ± 0.67
- Repellent Index (Neutrophils; neutrophils, 0.0573 μM, one donor, triplicate, ± SD): 3.17 ± 0.98
- Repellent Index (Neutrophils; neutrophils, 0.573 μM, one donor, triplicate, ± SD): 5.55 ± 1.71

Molecule: CXCL2: chemokine
- Repellent Index (Neutrophils; [2]): 1.6

Molecule: Concanavalin A
- Migratory Response (B-cell): chemorepulsion
- Migratory Response (Monocyte; [7]): chemorepulsion

Molecule: Eotaxin: chemokine
- Migratory Response (B-cell): chemorepulsion

Molecule: Galectin-7: full-length galectin protein, purchased
- Migratory Response (B-cell): chemorepulsion

Molecule: Lipid A Diphos [reference compound]
- Migratory Response [1]: chemorepulsion

Molecule: MCP-4: chemokine
- Migratory Response (B-cell): chemorepulsion
- Migratory Response (Monocyte; [7]): chemorepulsion

Molecule: N-acetylmuramyl (MDP) [reference compound]
- Migratory Response [1]: chemorepulsion
- Migratory Response (Monocyte): chemorepulsion

Molecule: Tropomyosin
- Repellent Index (Neutrophils; [2]): 1.7
- Repellent Index (Neutrophils; [3]): 2.57 ± 0.73
- Repellent Index (Neutrophils; [4]): 2.26 ± 0.86
- Repellent Index (Neutrophils; [5]): 2.23 ± 0.68
- Repellent Index (Neutrophils; [6]): 1.67 ± 0.16

B1: Leukotactin-1: chemokine (protein, UniProt Q16663 22-113, looked up)
C-C motif chemokine 15: QFTNDAETELMMSKLPLENPVVLNSFHFAADCCTSYISQSIPCSLMKSYFETSSECSKPGVIFLTKKGRQVCAKPSGPGVQDCMKKLKPYSI
- Migratory Response (B-cell): chemorepulsion

B2: MDC: chemokine (protein, UniProt O00626 25-93, looked up)
C-C motif chemokine 22: GPYGANMEDSVCCRDYVRYRLPLRVVKHFYWTSDSCPRPGVVLLTFRDKEICADPRVPWVKMILNKLSQ
- Migratory Response (B-cell): chemorepulsion

B3: Eotaxin-2: chemokine (protein, UniProt O00175 27-119, looked up)
C-C motif chemokine 24: VVIPSPCCMFFVSKRIPENRVVSYQLSSRSTCLKAGVIFTTKKGQQFCGDPKQEWVQRYMKNLDAKQKKASPRARAVAVKGPVQRYPGNQTTC
- Migratory Response (B-cell): chemorepulsion
- Migratory Response (Monocyte; [7]): chemorepulsion

B4: SLC: chemokine (protein, UniProt O00585 24-134, looked up)
C-C motif chemokine 21: SDGGAQDCCLKYSQRKIPAKVVRSYRKQEPSLGCSIPAILFLPRKRSQAELCADPKELWVQQLMQHLDKTPSPQKPAQGCRKDRGASKTGKKGKGSKGCKRTERSQTPKGP
- Migratory Response (Monocyte; [7]): chemorepulsion

B5: TARC: chemokine (protein, UniProt Q92583 24-94, looked up)
C-C motif chemokine 17: ARGTNVGRECCLEYFKGAIPLRKLKTWYQTSEDCSRDAIVFVTVQGRAICSDPNNKRVKNAVKYLQSLERS
- Migratory Response (B-cell): chemorepulsion

B6: HSP32 Rat: heat shock protein; accession P06762/AAH91164 (protein, UniProt P06762 1-289, looked up)
Heme oxygenase 1: MERPQLDSMSQDLSEALKEATKEVHIRAENSEFMRNFQKGQVSREGFKLVMASLYHIYTALEEEIERNKQNPVYAPLYFPEELHRRAALEQDMAFWYGPHWQEAIPYTPATQHYVKRLHEVGGTHPELLVAHAYTRYLGDLSGGQVLKKIAQKAMALPSSGEGLAFFTFPSIDNPTKFKQLYRARMNTLEMTPEVKHRVTEEAKTAFLLNIELFEELQALLTEEHKDQSPSQTEFLRQRPASLVQDTTSAETPRGKSQISTSSSQTPLLRWVLTLSFLLATVAVGIYAM
- Migratory Response [1]: chemorepulsion
- Repellent Index (Neutrophils; [2]): 1.8

B7: MIP-1 beta: chemokine (protein, UniProt P13236 24-92, looked up)
C-C motif chemokine 4: APMGSDPPTACCFSYTARKLPRNFVVDYYETSSLCSQPAVVFQTKRSKQVCADPSESWVQEYVYDLELN
- Migratory Response (B-cell): chemorepulsion
- Migratory Response (Monocyte; [7]): chemorepulsion

B8: HCC-1: chemokine (protein, UniProt Q16627 20-93, looked up)
C-C motif chemokine 14: TKTESSSRGPYHPSECCFTYTTYKIPRQRIMDYYETNSQCSKPGIVFITKRGHSVCTNPSDKWVQDYIKDMKEN
- Migratory Response (B-cell): chemorepulsion

B9: Fractalkine: chemokine (protein, UniProt P78423 25-397, looked up)
Fractalkine: QHHGVTKCNITCSKMTSKIPVALLIHYQQNQASCGKRAIILETRQHRLFCADPKEQWVKDAMQHLDRQAAALTRNGGTFEKQIGEVKPRTTPAAGGMDESVVLEPEATGESSSLEPTPSSQEAQRALGTSPELPTGVTGSSGTRLPPTPKAQDGGPVGTELFRVPPVSTAATWQSSAPHQPGPSLWAEAKTSEAPSTQDPSTQASTASSPAPEENAPSEGQRVWGQGQSPRPENSLEREEMGPVPAHTDAFQDWGPGSMAHVSVVPVSSEGTPSREPVASGSWTPKAEEPIHATMDPQRLGVLITPVPDAQAATRRQAVGLLAFLGLLFCLGVAMFTYQSLQGCPRKMAGEMAEGLRYIPRSCGSNSYVLVPV
- Migratory Response (B-cell): chemorepulsion
- Migratory Response (Monocyte; [7]): chemorepulsion

B10: Eotaxin-3: chemokine (protein, UniProt Q9Y258 24-94, looked up)
C-C motif chemokine 26: TRGSDISKTCCFQYSHKPLPWTWVRSYEFTSNSCSQRAVIFTTKRGKKVCTHPRKKWVQKYISLLKTPKQL
- Migratory Response (B-cell): chemorepulsion
- Migratory Response (Monocyte; [7]): chemorepulsion

B11: RANTES: chemokine (protein, UniProt P13501 24-91, looked up)
C-C motif chemokine 5: SPYSSDTTPCCFAYIARPLPRAHIKEYFYTSGKCSNPAVVFVTRKNRQVCANPEKKWVREYINSLEMS
- Migratory Response (B-cell): chemorepulsion
- Migratory Response (Monocyte; [7]): chemorepulsion
